Columns and labels:
TTR [1] = assay: TTR editing in HepG2 cells transfected with Spy Cas9 mRNA and dgRNAs (Table 6); format: cell-based, human; details: HepG2 cells co-transfected with Spy Cas9 mRNA (SEQ ID NO:2) and dgRNAs
Method in brief: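 Percent editing is the share of sequencing reads at the TTR target locus that carry insertions, deletions or substitutions, measured by Illumina amplicon sequencing aligned to hg38. Samples came from HepG2 cells lipofected first with 100 ng Cas9 mRNA and then with dual-guide RNA (25 nM crRNA/tracer), collected 24–72 h later.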

TTR [2] = assay: TTR editing in primary human hepatocytes transfected with Spy Cas9 protein (RNP) loaded with dgRNAs (Table 8); format: cell-based; details: dgRNA transfected with Spy Cas9 protein (RNP)
Method in brief: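 Primary human hepatocytes were lipofected (RNAiMAX) with RNP of Spy Cas9 (10 nM) plus pre-annealed crRNA (10 nM) and trRNA (10 nM) and harvested 24, 48 or 72 h later. Target-site amplicons were sequenced on Illumina MiSeq and aligned to hg38; percent editing = reads with indels or substitutions over total reads.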

off-target genomic sites = assay: Off-target oligo insertion based assay in HEK293_Cas9 cells, dgRNAs and sgRNAs (Tables 23, 24); format: cell-based, human; details: Table 23; TTR dgRNAs in HekCas9 cells, oligo insertion based assay
Method in brief: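 In HEK293 cells constitutively expressing Spy Cas9, crRNA (15 nM) plus trRNA (15 nM), or modified sgRNAs, were lipofected with donor oligo (10 nM). Genomic DNA was collected at 24 h, and oligo-insertion libraries were sequenced on MiSeq/HiSeq to map potential off-target cleavage sites.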

Row | Sequence | Avg % Deletion (TTR [1]) [%] | Avg % Edit (TTR [1]) [%] | Avg % Insert (TTR [1]) [%] | Avg % Deletion (TTR [2]) [%] | Avg % Edit (TTR [2]) [%] | Avg % Insert (TTR [2]) [%] | # Sites (off-target integration sites detected) (off-target genomic sites)
1 | AUACCAGUCCAGCAAGGCAG (tested as dual guide RNA, chemistry not given here) [CR003338] | 2.60 | 68.00 | 65.40 | 2.22 | 61.34 | 59.13 | 2
2 | AUAGGAGUAGGGGCUCAGCA (tested as dual guide RNA, chemistry not given here) [CR003383] | 0.16 | 6.35 | 6.19 | 0.24 | 4.76 | 4.52 | 1
3 | AUUGGUGACGACAGCCGUGG (tested as dual guide RNA, chemistry not given here) [CR003389] | 4.57 | 31.84 | 27.27 | 0.68 | 19.87 | 19.19 | 2
4 | CAGAGGACACUUGGAUUCAC (tested as dual guide RNA, chemistry not given here) [CR003343] | 5.36 | 45.41 | 40.05 | 1.63 | 43.25 | 41.61 | 2
5 | CAUUGAUGGCAGGACUGCCU (tested as dual guide RNA, chemistry not given here) [CR003347] | 1.49 | 22.57 | 21.08 | 0.24 | 66.35 | 66.11 | 1
6 | CCAGUCCAGCAAGGCAGAGG (tested as dual guide RNA, chemistry not given here) [CR003337] | 2.65 | 61.93 | 59.28 | 1.88 | 49.43 | 47.54 | 10
7 | CCCAGAGGCAAAUGGCUCCC (tested as dual guide RNA, chemistry not given here) [CR003355] | 3.44 | 15.80 | 12.36 | 1.42 | 19.11 | 17.69 | 1
8 | CCCCUACUCCUAUUCCACCA (tested as dual guide RNA, chemistry not given here) [CR003385] | 7.62 | 53.94 | 46.32 | 3.00 | 41.15 | 38.15 | 3
9 | CCGUGGUGGAAUAGGAGUAG (tested as dual guide RNA, chemistry not given here) [CR003386] | 0.56 | 2.71 | 2.15 | 0.25 | 3.22 | 2.97 | 1
10 | CCUCCUCUGCCUUGCUGGAC (tested as dual guide RNA, chemistry not given here) [CR003336] | 0.83 | 31.31 | 30.48 | 0.58 | 30.70 | 30.11 | 2
11 | CUCUGCAUGCUCAUGGAAUG (tested as dual guide RNA, chemistry not given here) [CR003369] | 5.51 | 22.62 | 17.11 | 1.31 | 12.98 | 11.67 | 2
12 | CUGCUCCUCCUCUGCCUUGC (tested as dual guide RNA, chemistry not given here) [CR003335] | 4.23 | 37.19 | 32.96 | 1.63 | 51.14 | 49.51 | 0
13 | CUUCUCUACACCCAGGGCAC (tested as dual guide RNA, chemistry not given here) [CR003342] | 0.28 | 11.06 | 10.78 | 0.81 | 20.66 | 19.85 | 0
14 | GAAAGGCUGCUGAUGACACC (tested as dual guide RNA, chemistry not given here) [CR003352] | 4.77 | 44.28 | 39.51 | 3.21 | 30.48 | 27.27 | 2
15 | GACGACAGCCGUGGUGGAAU (tested as dual guide RNA, chemistry not given here) [CR003388] | 1.56 | 9.33 | 7.76 | 1.05 | 5.43 | 4.38 | 2
16 | GCAACUUACCCAGAGGCAAA (tested as dual guide RNA, chemistry not given here) [CR003356] | 3.72 | 9.39 | 5.67 | 1.29 | 7.53 | 6.24 | 4
17 | GCAGGGCGGCAAUGGUGUAG (tested as dual guide RNA, chemistry not given here) [CR003380] | 2.30 | 17.08 | 14.78 | 0.46 | 8.17 | 7.71 | 0
18 | GCCGUGGUGGAAUAGGAGUA (tested as dual guide RNA, chemistry not given here) [CR003387] | 0.12 | 1.39 | 1.27 | 0.11 | 1.79 | 1.68 | 6
19 | GCGGCAAUGGUGUAGCGGCG (tested as dual guide RNA, chemistry not given here) [CR003377] | 1.02 | 16.30 | 15.29 | 0.31 | 12.77 | 12.45 | 0
20 | GGAGUAGGGGCUCAGCAGGG (tested as dual guide RNA, chemistry not given here) [CR003382] | 0.15 | 1.73 | 1.58 | 0.15 | 2.44 | 2.28 | 34
21 | GGCUGUCGUCACCAAUCCCA (tested as dual guide RNA, chemistry not given here) [CR003391] | 0.50 | 48.78 | 48.28 | 0.26 | 34.72 | 34.46 | 0
22 | GGGAUUGGUGACGACAGCCG (tested as dual guide RNA, chemistry not given here) [CR003390] | 2.44 | 24.88 | 22.44 | 0.24 | 16.09 | 15.85 | 1
23 | GUCACAGAAACACUCACCGU (tested as dual guide RNA, chemistry not given here) [CR005301] | 3.65 | 37.04 | 33.39 | 1.84 | 31.37 | 29.53 | 0
24 | GUGAGUCUGGAGAGCUGCAU (tested as dual guide RNA, chemistry not given here) [CR003360] | 2.38 | 41.31 | 38.94 | 1.19 | 31.47 | 30.27 | 0
25 | UCUAGAACUUUGACCAUCAG (tested as dual guide RNA, chemistry not given here) [CR003345] | 4.45 | 10.58 | 6.12 | 7.91 | 28.90 | 21.00 | 0
